# Target: T1, human GLP-1R receptor (Homo sapiens, UniProt P43220)
# T1 construct: expressed in transfected cells
# Test: GLP-1R low expression cell assay (cAMP TR-FRET, CHO-K1_hGLP-1Rlow_clone10 cells)
# Format: cell-based
# Conditions: for EC50: cAMP TR-FRET, 30 min at 25° C.
# Method in brief: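 Readout is cAMP TR-FRET after 30 min compound stimulation at 25 °C of a low-GLP-1R-expressing CHO-K1 clone (1,000 cells/well), with 10-point 3-fold serial dilutions. Percent activation versus a control GLP-1 peptide, from duplicates, was Hill-fitted to give EC50.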
# [1] = maximum activation relative to control GLP-1 peptide agonist
# T1 sequence (P43220 24-463): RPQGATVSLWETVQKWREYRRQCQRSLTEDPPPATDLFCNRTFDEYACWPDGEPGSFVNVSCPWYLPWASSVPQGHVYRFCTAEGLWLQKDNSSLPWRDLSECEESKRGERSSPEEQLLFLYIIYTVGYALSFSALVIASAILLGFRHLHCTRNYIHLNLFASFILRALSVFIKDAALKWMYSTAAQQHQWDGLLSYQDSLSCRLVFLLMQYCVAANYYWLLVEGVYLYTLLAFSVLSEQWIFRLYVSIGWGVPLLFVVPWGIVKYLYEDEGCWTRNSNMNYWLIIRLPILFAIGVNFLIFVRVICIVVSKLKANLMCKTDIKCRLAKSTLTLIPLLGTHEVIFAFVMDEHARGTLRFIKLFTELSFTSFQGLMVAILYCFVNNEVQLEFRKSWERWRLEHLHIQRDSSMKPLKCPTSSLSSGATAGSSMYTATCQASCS
Structure (SMILES),EC50 [nM],Emax [1] [%],GLP-1R Low Expression Cell Assay Emax (%) [1]
"Cn1c(CN2CCC(c3cccc(OCc4cc(F)c(C#N)cc4F)n3)CC2)nc2c(OC(F)F)cc(C(=O)O)cc21 [Compound 366, 2-((4-(6-((4-Cyano-2,5-difluorobenzyl)oxy)pyridin-2-yl)piperidin-1-yl)methyl)-4-(difluoromethoxy)-1-methyl-1H-benzo[d]imidazole-6-carboxylic acid]",< 10,> 85,
"N#Cc1ccc(COc2cccc(C3CCN(Cc4nc5c(O)c(C(=O)O)ccc5n4C[C@@H]4CCO4)CC3)n2)c(F)c1 [Compound 376, (S)-2-((4-(6-((4-Cyano-2-fluorobenzyl)oxy)pyridin-2-yl)piperidin-1-yl)methyl)-4-hydroxy-1-(oxetan-2-ylmethyl)-1H-benzo[d]imidazole-5-carboxylic acid]",< 10,> 85,
"COc1cc(Cl)ccc1COc1cccc(C2CCN(Cc3nc4c(OC)cc(C(=O)O)cc4n3C)CC2)n1 [Compound 348, 2-((4-(6-((4-Chloro-2-methoxybenzyl)oxy)pyridin-2-yl)piperidin-1-yl)methyl)-4-methoxy-1-methyl-1H-benzo[d]imidazole-6-carboxylic acid]",< 10,> 85,
"Cn1c(CN2CCC(c3ncc(F)c(OCc4ccc(Cl)cc4F)n3)CC2)nc2c(OC(F)F)cc(C(=O)O)cc21 [Compound 356, 2-((4-(4-((4-Chloro-2-fluorobenzyl)oxy)-5-fluoropyrimidin-2-yl)piperidin-1-yl)methyl)-4-(difluoromethoxy)-1-methyl-1H-benzo[d]imidazole-6-carboxylic acid]",10 to 100,> 85,
"CCOc1cc(C(=O)O)cc2c1nc(CN1CCC(c3cccc4c3O[C@H](c3ccc(Cl)cc3F)CO4)CC1)n2C [Compound 265, (R)-2-((4-(3-(4-chloro-2-fluorophenyl)-2,3-dihydrobenzo[b][1,4]dioxin-5-yl)piperidin-1-yl)methyl)-4-ethoxy-1-methyl-1H-benzo[d]imidazole-6-carboxylic acid]",10 to 100,> 85,
"Cn1c(CN2CCC(c3ccc(F)c(OCc4ccc(Cl)cc4F)n3)CC2)nc2c(OC(F)F)cc(C(=O)O)cc21 [Compound 242, 2-((4-(6-((4-Chloro-2-fluorobenzyl)oxy)-5-fluoropyridin-2-yl)piperidin-1-yl)methyl)-4-(difluoromethoxy)-1-methyl-1H-benzo[d]imidazole-6-carboxylic acid]",10 to 100,> 85,
"COc1cc(C(=O)O)cc2c1nc(Cc1ccc(-c3cccc(OCc4ccc(C#N)cc4F)n3)cc1F)n2C [Compound 342, 2-(4-(6-((4-cyano-2-fluorobenzyl)oxy)pyridin-2-yl)-2-fluorobenzyl)-4-methoxy-1-methyl-1H-benzo[d]imidazole-6-carboxylic acid]",< 10,> 85,
"Cn1c(CN2CCC(c3cccc(OCc4ccccc4Cl)n3)CC2)nc2c(OC(F)F)cc(C(=O)O)cc21 [Compound 248, 2-((4-(6-((2-Chlorobenzyl)oxy)pyridin-2-yl)piperidin-1-yl)methyl)-4-(difluoromethoxy)-1-methyl-1H-benzo[d]imidazole-6-carboxylic acid]",100 to 1000,> 85,
Cn1c(CN2CCC(c3cccc(OCc4ccc(OC(F)(F)F)cc4F)n3)CC2)nc2c(OC(F)F)cc(C(=O)O)cc21 [Compound 222],100 to 1000,> 85,
"CC(F)Oc1cc(C(=O)O)cc2c1nc(CN1CCC(c3cccc(OCc4ccc(Cl)cc4F)n3)CC1)n2C (stereo not shown) [Compound 359, 2-((4-(6-((4-Chloro-2-fluorobenzyl)oxy)pyridin-2-yl)piperidin-1-yl)methyl)-4-(1-fluoroethoxy)-1-methyl-1H-benzo[d]imidazole-6-carboxylic acid]",< 10,> 85,
"COc1cc(C(=O)O)cc2c1nc(CN1CCC(c3cccc(OCc4ccc(Cl)cc4F)n3)CC1)n2CF [Compound 209, 2-((4-(6-((4-Chloro-2-fluorobenzyl)oxy)pyridin-2-yl)piperidin-1-yl)methyl)-1-(fluoromethyl)-4-methoxy-1H-benzo[d]imidazole-6-carboxylic acid]",10 to 100,> 85,
"N#Cc1ccc(COc2cccc(C3CCN(Cc4nc5c(OC(F)F)cc(C(=O)O)cc5n4C[C@@H]4CCS4(=O)=O)CC3)n2)c(F)c1 [Compound 110, (S)-2-((4-(6-((4-Cyano-2-fluorobenzyl)oxy)pyridin-2-yl)piperidin-1-yl)methyl)-4-(difluoromethoxy)-1-((1,1-dioxidothietan-2-yl)methyl)-1H-benzo[d]imidazole-6-carboxylic acid]",< 10,> 85,
"Cn1c(CN2CCC(Oc3cccc(COc4ccc(Cl)cc4F)n3)CC2)nc2c(OC(F)F)cc(C(=O)O)cc21 [Compound 196, 2-((4-((6-((4-Chloro-2-fluorophenoxy)methyl)pyridin-2-yl)oxy)piperidin-1-yl)methyl)-4-(difluoromethoxy)-1-methyl-1H-benzo[d]imidazole-6-carboxylic acid]",10 to 100,> 85,
"CO[C@H]1C[C@H](Oc2cc(C(=O)O)cc3c2nc(CN2CCC(c4cccc(OCc5ccc(C#N)cc5F)n4)CC2)n3C)C1 [Compound 317, 2-((4-(6-((4-Cyano-2-fluorobenzyl)oxy)pyridin-2-yl)piperidin-1-yl)methyl)-4-((1r,3r)-3-methoxycyclobutoxy)-1-methyl-1H-benzo[d]imidazole-6-carboxylic acid]",100 to 1000,> 85,
"C[C@H](F)Oc1cc(C(=O)O)cc2c1nc(CN1CCC(c3cccc(OCc4ccc(C#N)cc4F)n3)CC1)n2C [Compound 313, (S)-2-((4-(6-((4-Cyano-2-fluorobenzyl)oxy)pyridin-2-yl)piperidin-1-yl)methyl)-4-(1-fluoroethoxy)-1-methyl-1H-benzo[d]imidazole-6-carboxylic acid]",10 to 100,> 85,
"CCOc1cc(C(=O)O)cc2c1nc(CN1CCC(c3cccc4c3O[C@@H](c3ccc(Cl)cc3F)CO4)CC1)n2C [Compound 266, (S)-2-((4-(3-(4-chloro-2-fluorophenyl)-2,3-dihydrobenzo[b][1,4]dioxin-5-yl)piperidin-1-yl)methyl)-4-ethoxy-1-methyl-1H-benzo[d]imidazole-6-carboxylic acid]",< 10,> 85,
"N#Cc1ccc(COc2cccc(C3CCN(Cc4nc5ccc(C(=O)O)c(O)c5n4C[C@@H]4CCO4)CC3)n2)c(F)c1 [Compound 172, (S)-2-((4-(6-((4-cyano-2-fluorobenzyl)oxy)pyridin-2-yl)piperidin-1-yl)methyl)-7-hydroxy-1-(oxetan-2-ylmethyl)-1H-benzo[d]imidazole-6-carboxylic acid]",,,+ (Emax is <25%)
"COc1cc(C(=O)O)cc2c1nc(N(C)[C@H]1CC[C@@H](c3cccc4c3O[C@@](C)(c3ccc(Cl)cn3)O4)CC1)n2C[C@@H]1CCO1 [Compound 79, 2-(((1R,4R)-4-((S)-2-(5-chloropyridin-2-yl)-2-methylbenzo[d][1,3]dioxol-4-yl)cyclohexyl)(methyl)amino)-4-methoxy-1-(((S)-oxetan-2-yl)methyl)-1H-benzo[d]imidazole-6-carboxylic acid]",100 to 1000,> 85,
"Cn1c(CN2CCC(c3nc(OCc4ccc(Cl)cc4F)ccc3F)CC2)nc2c(OC(F)F)cc(C(=O)O)cc21 [Compound 243, 2-((4-(6-((4-Chloro-2-fluorobenzyl)oxy)-3-fluoropyridin-2-yl)piperidin-1-yl)methyl)-4-(difluoromethoxy)-1-methyl-1H-benzo[d]imidazole-6-carboxylic acid]",100 to 1000,50 to 85,
"Cn1c(CN2CC=C(c3cccc(OCc4ccc(Cl)cc4F)n3)CC2)nc2c(OC(F)F)cc(C(=O)O)cc21 [Compound 155, 2-((6-((4-Chloro-2-fluorobenzyl)oxy)-3′,6′-dihydro-[2,4′-bipyridin]-1′(2′H)-yl)methyl)-4-(difluoromethoxy)-1-methyl-1H-benzo[d]imidazole-6-carboxylic acid]",10 to 100,> 85,
"Cc1ccc(COc2c(F)cccc2C2CCN(Cc3nc4c(OC(F)F)cc(C(=O)O)cc4n3C)CC2)c(F)c1 [Compound 139, 4-(Difluoromethoxy)-2-((4-(3-fluoro-2-((2-fluoro-4-methylbenzyl)oxy)phenyl)piperidin-1-yl)methyl)-1-methyl-1H-benzo[d]imidazole-6-carboxylic acid]",10 to 100,> 85,
"C[C@@H](Oc1ccccc1C1CCN(Cc2nc3c(OC(F)F)cc(C(=O)O)cc3n2C)CC1)c1ccc(C#N)cc1F (single isomer, unassigned) [Compound 173]",> 1000,< 25,
"COc1cc(C(=O)O)cc2c1nc(CN1CCC(c3cccc4c3O[C@H](c3ccc(C#N)cc3F)CO4)CC1)n2C [Compound 310, (R)-2-((4-(3-(4-cyano-2-fluorophenyl)-2,3-dihydrobenzo[b][1,4]dioxin-5-yl)piperidin-1-yl)methyl)-4-methoxy-1-methyl-1H-benzo[d]imidazole-6-carboxylic acid]",10 to 100,> 85,
"Cn1c(CN2CCC(c3cccc(OCc4ccc(Cl)cc4F)n3)CC2)nc2c(OC(F)F)cc(C(=O)O)nc21 [Compound 328, 2-((4-(6-((4-Chloro-2-fluorobenzyl)oxy)pyridin-2-yl)piperidin-1-yl)methyl)-7-(difluoromethoxy)-3-methyl-3H-imidazo[4,5-b]pyridine-5-carboxylic acid]",10 to 100,> 85,
"COc1cc(C(=O)O)cc2c1nc(CN1CCC(c3cccc4c3O[C@@H](c3ccc(Cl)cc3F)CO4)CC1)n2C [Compound 268, (S)-2-((4-(3-(4-Chloro-2-fluorophenyl)-2,3-dihydrobenzo[b][1,4]dioxin-5-yl)piperidin-1-yl)methyl)-4-methoxy-1-methyl-1H-benzo[d]imidazole-6-carboxylic acid]",< 10,> 85,
